Results on three molecules are retold here after US12098127B2, “Salt form of estrogen receptor downregulator, crystalline form thereof, and preparation method therefor” (LUOXIN PHARMACEUTICAL (SHANGHAI) CO., LTD., priority 2018, dated 2024).

A short description of data set [1]: In vivo PK experiments in beagle dogs, oral gavage. The procedure: The samples were detected by LC-MS/MS, and AUC, Cmax, and Tmax parameters were calculated by employing WinNonlin version 6.4.
The nature of data set [2]: Solubility test in water and biological vehicles (FaSSIF, FeSSIF). The conditions noted are these: for solubility at 24 h: thermodynamic from solid, 37° C., HPLC, crystal form A calculated based on the free acid. The format is physicochemical.
For data set [3] the following is noted: background art; cited from earlier work.
Where [4] appears, read: dog, blood, beagle dogs, P.O. 300 mg/kg, single oral gavage.

In general, AUC(0-t) refers to the area under the concentration-time curve up to a stated or last time point. A high value points to more exposure. Usually Cmax stands for the peak of the concentration-time curve. For orientation: Tmax means the time from dosing to the highest level. The solubility is how much of the substance goes into solution per volume.

Values after ≈ are worked out from the molar mass of the structure shown. Like-named read-outs stand apart in the source and are kept apart here.

As for `CC/C(=C(/c1ccc(/C=C/C(=O)O)cc1)c1[nH]c2ccccc2c1Cl)c1ccc(F)cc1Cl` [compound I-8], in data set [1] (setting [4]), the AUC(0-t) was determined as 613 µM·h, the highest level (Cmax) was 43.5 µM and the Tmax is 6 h. In data set [1] (dog, blood, beagle dogs, P.O. 300 mg/kg, single oral gavage, read-out: MRT0-last), the MRT last stood at 10.6 h. Moreover, the solubility at 24 h in data set [2] (FaSSIF (simulated pre-meal intestinal fluid), read-out: Solubility in FaSSIF) is 117 µg/mL (≈ 244 µM). In addition, the solubility at 24 h in data set [2] (FeSSIF (simulated post-meal intestinal fluid), read-out: Solubility in FeSSIF) is 440 µg/mL (≈ 916 µM). Further, the solubility at 24 h in data set [2] (purified water, read-out: Solubility in H2O) is 8 µg/mL (≈ 16.7 µM).

For `CC/C(=C(/c1ccc(/C=C/C(=O)O)cc1)c1[nH]c2ccccc2c1Cl)c1ccc(F)cc1Cl` [compound of formula (I)], the “Amount of exposure in the organism compared with compound 1-8” value in data set [1] (in vivo pharmacokinetic studies, versus compound 1-8) is “significantly increased”. Further, the “Solubility in biological media compared with compound 1-8” value in data set [2] (biological media, versus compound 1-8) was “significantly improved”. Further, the “Solubility in water compared with free acid compound 1-8” value in data set [2] (water, versus compound 1-8) is recorded as “nearly hundredfold improved”.

Regarding `C[C@]12CC[C@@H]3c4ccc(O)cc4C[C@@H](CCCCCCCCC[S+]([O-])CCCC(F)(F)C(F)(F)F)[C@H]3[C@@H]1CC[C@@H]2O` (some centres unmarked) [fulvestrant], the Oral bioavailability result in data set [3] is “zero oral bioavailability”.
